Assays:
[1] = biological target: T1, wild‐type CFTR (Homo sapiens, UniProt P13569); test: Single-channel recording in excised inside-out membrane patches, wild-type CFTR; format: biochemical; conditions: ATP 0.3 mM; for maximum Po (Po max) / EC50: PKA 75 nM, ~23°C; for EC50: read-out: EC50 for potentiation of Po
T1 construct: expressed in transfected cells
Procedure: For CFTR studies using automated electrophysiology and single-channel recording, we used baby hamster kidney (BHK) cells (RRID:CVCL_1915) and human embryonic kidney (HEK) 293 cells (RRID:CVCL_0045) stably expressing wild-type human CFTR and the CFTR variants F508del- and […] et al., [2002]; Xu et al., [2014]). […] HEK cells expressing CFTR variants were generated using the Flp-InTM system as described above for F508del- and G551D-CFTR-expressing FRT cells. They were cultured in Dulbecco's modified Eagle's medium (glucose, 1.5 g·L^-1; sodium pyruvate, 110 mg·L^-1) supplemented with 10% FBS (PAA Laboratories), GlutaMAXTM and hygromycin-B (150 μg·ml^-1; InvitrogenTM, Thermo Fisher Scientific) at 37°C in a humidified atmosphere with 5% CO2. Prior to study, F508del-CFTR expressed in HEK cells was trafficked to the plasma membrane by low temperature incubation (27°C for 24-72 h). The single-channel behaviour of human CFTR in excised membrane patches from different mammalian cell lines heterologously expressing CFTR is equivalent (wild-type CFTR, Chen et al., [2009]; F508del-CFTR, Bose et al., [2019]; and G551D-CFTR, J Liu, Y Wang, Z Cai, and DN Sheppard, unpublished observations). CFTR Cl^- channels were recorded in excised inside-out membrane patches using an Axopatch 200B patch-clamp amplifier and pCLAMP software (version 10.3) (RRID:SCR_011323) (both from Molecular Devices, San Jose, CA, USA) (Sheppard & Robinson, [1997]). […] Within 2 min after membrane patch excision, we added the catalytic subunit of protein kinase A (PKA; 75 nM) and ATP (1 mM) to the intracellular solution to activate CFTR Cl^- channels. To minimise channel rundown, we added PKA and millimolar concentrations of ATP to all intracellular solutions and clamped voltage at -50 mV. […] We reduced the ATP concentration when testing CFTR potentiators on wild-type CFTR to observe their effects more clearly. […] Instead, specific interventions with CFTR potentiators were compared with the pre-intervention control period made with the same concentration of ATP and PKA, but without test compounds. […] F508del-CFTR, n ≤ 4; G551D-CFTR, n ≤ 5). To determine channel number, we used the maximum number of simultaneous channel openings observed during an experiment (Cai et al., [2006]). To minimise errors, we used experimental conditions that robustly potentiate channel activity and verified that recordings were of sufficient length to ascertain the correct number of channels ([…] et al., [1994]). […] Despite our precautions, we cannot exclude the possibility of unobserved G551D-CFTR Cl^- channels in excised membrane patches causing Po values for G551D-CFTR to be […]. Therefore, Po values for G551D-CFTR are expressed as apparent Po (Po(app)) values. Single-channel currents were directly acquired to a computer hard disc after filtering at a corner frequency (f c) of 500 Hz with an eight-pole Bessel filter (model LHBF-48×; npi electronic GmbH, Tamm, Germany) and digitising at a sampling rate of 5 kHz using a Digidata 1440A interface (Molecular Devices) and pCLAMP software. […] The mean interburst interval (TIBI) was calculated using the equation (Cai et al., [2006]): (1) Po=Tb/TMBD+TIBI, where T b = (mean burst duration) × (open probability within a burst). Mean burst duration (T MBD) and open probability within a burst (Po[burst]) were determined directly from experimental data using pCLAMP software. […]

[2] = biological target: F508del‐CFTR (Homo sapiens, UniProt P13569, DEL508-508); test: Fluorescence-based halide flux assay (I−-induced quenching of YFP fluorescence) in FRT cells; format: cell-based; conditions: exploratory data
Chain of F508del‐CFTR (P13569 with tags, fused parts or gaps DEL508-508): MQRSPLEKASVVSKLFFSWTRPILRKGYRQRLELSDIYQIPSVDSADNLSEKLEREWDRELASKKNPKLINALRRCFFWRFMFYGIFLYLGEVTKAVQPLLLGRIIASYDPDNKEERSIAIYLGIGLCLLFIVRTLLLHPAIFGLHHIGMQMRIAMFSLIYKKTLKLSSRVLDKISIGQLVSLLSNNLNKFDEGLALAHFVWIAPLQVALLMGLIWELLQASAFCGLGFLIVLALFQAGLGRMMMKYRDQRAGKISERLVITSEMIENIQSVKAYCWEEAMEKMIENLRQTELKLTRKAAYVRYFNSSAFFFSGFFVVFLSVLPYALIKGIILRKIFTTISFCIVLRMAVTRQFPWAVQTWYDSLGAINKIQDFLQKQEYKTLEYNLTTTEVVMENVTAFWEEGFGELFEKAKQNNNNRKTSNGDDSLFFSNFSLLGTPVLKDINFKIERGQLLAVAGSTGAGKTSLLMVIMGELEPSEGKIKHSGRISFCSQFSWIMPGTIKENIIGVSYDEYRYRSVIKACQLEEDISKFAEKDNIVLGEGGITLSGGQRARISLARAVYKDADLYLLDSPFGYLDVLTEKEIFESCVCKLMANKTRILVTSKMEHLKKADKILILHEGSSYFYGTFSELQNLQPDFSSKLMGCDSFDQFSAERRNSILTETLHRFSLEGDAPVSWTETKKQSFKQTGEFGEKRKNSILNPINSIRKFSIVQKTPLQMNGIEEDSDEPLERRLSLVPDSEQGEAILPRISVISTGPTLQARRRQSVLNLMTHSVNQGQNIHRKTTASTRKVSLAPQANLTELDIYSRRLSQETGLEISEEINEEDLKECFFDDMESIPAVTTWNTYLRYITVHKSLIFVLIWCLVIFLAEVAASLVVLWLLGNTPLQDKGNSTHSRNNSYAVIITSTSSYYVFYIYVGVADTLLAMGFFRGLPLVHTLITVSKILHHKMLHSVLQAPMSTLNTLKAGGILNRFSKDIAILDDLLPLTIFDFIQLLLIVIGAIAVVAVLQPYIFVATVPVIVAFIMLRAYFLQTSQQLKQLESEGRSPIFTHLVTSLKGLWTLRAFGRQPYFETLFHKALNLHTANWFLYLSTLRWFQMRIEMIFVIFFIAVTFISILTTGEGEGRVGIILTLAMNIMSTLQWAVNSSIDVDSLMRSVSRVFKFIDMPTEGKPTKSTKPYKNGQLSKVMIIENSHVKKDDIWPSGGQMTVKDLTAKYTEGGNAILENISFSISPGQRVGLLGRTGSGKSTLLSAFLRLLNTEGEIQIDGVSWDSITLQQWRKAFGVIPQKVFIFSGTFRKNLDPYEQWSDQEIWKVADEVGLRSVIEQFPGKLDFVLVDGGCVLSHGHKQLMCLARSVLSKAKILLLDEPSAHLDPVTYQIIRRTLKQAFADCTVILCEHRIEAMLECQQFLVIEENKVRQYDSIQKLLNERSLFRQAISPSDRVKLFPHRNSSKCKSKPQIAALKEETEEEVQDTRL
Procedure: Fischer rat thyroid (FRT) epithelial cells (RRID:CVCL_A6IE) expressing CFTR variants were used for functional studies with halide flux and Ussing chamber techniques. FRT cells stably expressing the F508del variant with the V470 polymorphism and the halide sensor yellow fluorescent protein (YFP)‐H148Q/I152L (F508del‐CFTR‐YFP‐FRT cells) (Galietta et al., [2001]) were obtained from LJV Galietta (Telethon Institute for Genetics and Medicine, Pozzuoli, Italy). They were cultured in Coon's modified Ham's F‐12 medium supplemented with 10% FBS, 2‐mM GlutaMAX™, 0.27% NaHCO3, 100 U·ml^−1 penicillin and 100 μg·ml^−1 streptomycin and 0.8 mg·ml^−1 zeocin at 37°C in a humidified atmosphere with 5% CO2. […]
CFTR‐mediated anion transport was quantified by measuring I^−‐induced quenching of YFP fluorescence using a microtitre plate reader following the method of Galietta et al. ([2001]). […] Using a fluorescence microtitre plate reader (FLIPR384; Molecular Devices, San Jose, CA, USA) equipped with 500‐nm excitation and 535‐nm emission filters, an initial fluorescence reading was recorded before addition of PBS‐iodide solution (composition [mM]: 137 NaI, 2.7 KCl, 8.1 Na2HPO4, 1.5 KH2PO4, 1 CaCl2, and 0.5 MgCl2, pH 7.40) into each well and 21 s later a second fluorescence reading was acquired. […]

T1 sequence (P13569 whole entry): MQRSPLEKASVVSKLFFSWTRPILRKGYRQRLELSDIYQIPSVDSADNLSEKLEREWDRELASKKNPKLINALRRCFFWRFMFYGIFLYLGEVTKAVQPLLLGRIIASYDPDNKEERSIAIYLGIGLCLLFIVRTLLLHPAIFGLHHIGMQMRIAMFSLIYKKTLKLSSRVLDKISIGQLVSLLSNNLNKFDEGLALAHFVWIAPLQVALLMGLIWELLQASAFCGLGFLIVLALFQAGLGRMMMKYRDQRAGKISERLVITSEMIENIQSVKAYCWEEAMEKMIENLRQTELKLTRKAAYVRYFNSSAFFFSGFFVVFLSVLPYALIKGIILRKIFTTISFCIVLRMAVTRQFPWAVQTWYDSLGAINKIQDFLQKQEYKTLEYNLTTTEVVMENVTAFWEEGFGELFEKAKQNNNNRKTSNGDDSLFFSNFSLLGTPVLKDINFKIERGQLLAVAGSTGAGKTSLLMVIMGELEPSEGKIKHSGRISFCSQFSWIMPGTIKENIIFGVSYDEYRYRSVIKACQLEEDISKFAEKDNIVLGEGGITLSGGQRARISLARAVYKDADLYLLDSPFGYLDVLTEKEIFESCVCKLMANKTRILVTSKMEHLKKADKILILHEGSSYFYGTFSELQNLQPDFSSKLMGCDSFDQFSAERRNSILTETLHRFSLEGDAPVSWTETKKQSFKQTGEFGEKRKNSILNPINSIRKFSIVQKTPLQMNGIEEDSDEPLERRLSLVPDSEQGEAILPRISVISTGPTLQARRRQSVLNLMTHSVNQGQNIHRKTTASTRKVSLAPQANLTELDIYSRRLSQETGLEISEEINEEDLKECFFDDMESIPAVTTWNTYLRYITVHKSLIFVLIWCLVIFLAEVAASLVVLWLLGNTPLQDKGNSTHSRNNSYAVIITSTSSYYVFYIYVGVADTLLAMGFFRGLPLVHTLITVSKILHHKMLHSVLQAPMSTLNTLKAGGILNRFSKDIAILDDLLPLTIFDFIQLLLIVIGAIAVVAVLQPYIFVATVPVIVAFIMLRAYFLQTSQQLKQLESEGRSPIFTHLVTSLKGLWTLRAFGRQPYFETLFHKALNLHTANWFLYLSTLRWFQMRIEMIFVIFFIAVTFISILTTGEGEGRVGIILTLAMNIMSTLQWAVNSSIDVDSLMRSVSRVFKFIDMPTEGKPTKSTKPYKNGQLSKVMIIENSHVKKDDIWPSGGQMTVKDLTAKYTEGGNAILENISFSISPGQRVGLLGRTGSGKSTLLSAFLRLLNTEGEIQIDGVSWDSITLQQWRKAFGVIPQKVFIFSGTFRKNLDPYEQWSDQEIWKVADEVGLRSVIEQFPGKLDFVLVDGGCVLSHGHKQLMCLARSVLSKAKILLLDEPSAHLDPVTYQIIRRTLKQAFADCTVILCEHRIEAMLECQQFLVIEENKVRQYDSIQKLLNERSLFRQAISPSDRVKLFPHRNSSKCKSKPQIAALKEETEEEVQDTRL

SMILES	maximum Po (Po max) [1]	EC50 [1]	maximal response compared with ivacaftor ([2]; FRT cells co-expressing low temperature-rescued F508del‐CFTR and YFP)	EC50 ([2]; FRT cells co-expressing low temperature-rescued F508del‐V470‐CFTR and YFP, forskolin 20 μM, scaled to DMSO 0% and genistein 50 μM 100%, read-out: EC50 for potentiation of CFTR-mediated anion transport)	greater potency than CP‐628006 [1]
Cc1ncccc1CNC(=O)c1ccc2c(c1)CC[C@H]1C[C@](O)(CCC(F)(F)F)CC[C@]21Cc1ccccc1 (racemic) [CP‐628006, rac‐(4bR,7R,8aS)‐4b‐benzyl‐7‐hydroxy‐N‐((2‐methylpyridin‐3‐yl)methyl)‐7‐(3,3,3‐trifluoropropyl)‐4b,5,6,7,8,8a,9,10‐octahydrophenanthrene‐2‐carboxamide]	0.77	24 nM	approximately half that of ivacaftor	400 nM	
CC(C)(C)c1cc(C(C)(C)C)c(NC(=O)c2c[nH]c3ccccc3c2=O)cc1O [ivacaftor, reference compound]	0.71	0.21 nM			100 fold
